Laboratory results from patent US20080317723A1, “LYMPHATIC ENDOTHELIAL CELLS MATERIALS AND METHODS” (VEGENICS LIMITED, priority 2001, published 2008).

How the values were obtained:
Assay type in all cases: cell-based, human
HMVE cells [1] = test: Boyden chamber cell migration assay; conditions: 6 h, VEGF 10 ng/ml, VEGF-C 500 ng/ml, VEGF-D 500 ng/ml, VEGF-C156S 3 μg/ml
Method: FIG. 5. VEGFR-3 mediates endothelial cell migration. The migration of HMVE cells in the presence of different VEGFs in a Boyden chamber assay. […] Data represent mean values from three independent experiments (mean±s.d.). The growth factor concentrations used are: VEGF 10 ng/ml, VEGF-C 500 ng/ml, VEGF-D 500 ng/ml and VEGF-C156S 3 μg/ml.
Cell migration assay. Migration assays were performed in a 48-well chemotaxis Boyden chamber (Neuroprobe Inc.). Eight micron Nucleopore polycarbonate filters (Corning) were coated with 100 μg/ml of collagen type I (Upstate Biotechnology) overnight at +4° C. and air dried. The filters were placed over the lower chamber wells containing the growth factors in serum-free growth medium supplemented with 0.2% BSA. For blocking experiments, VEGF and VEGF-C156S were preincubated with a ten-fold molar excess of soluble human VEGFR-3 for 30 min. HMVE cells were suspended in the growth medium and 10,000 cells in 50 μl were added to each well in the upper chamber. The cells were allowed to migrate for 6 h at 37° C. after which the filter was fixed with cold methanol and stained with hematoxylin (Meyer). Non-migrated cells on the upper surface of the filter were removed by scraping with a cotton swab and the number of migrated cells was counted. The assays were run in quadruplicate and repeated with three different batches of HMVECs.

VEGFR-2/EpoR = test: Ba/F3 bioassay, viability (MTT) of VEGFR-2/EpoR cells; conditions: FIG. 1B
Method: FIG. 1A-FIG. 1C. Analysis of the receptor-specificities of different VEGFs using the Ba/F3 bioassay. Measurement of the viability of Ba/F3 cells expressing the chimeric receptors VEGFR-1/EpoR (FIG. 1A), VEGFR-2/EpoR (FIG. 1B) or VEGFR-3/EpoR (FIG. 1C) in the presence of different VEGFs at indicated concentrations. Cell viability was determined using the MTT assay. Data represent the mean values from triplicate assays (mean±s.d.). FIG. 1D-FIG. 1G. Biosensor analysis of the interaction of VEGF-C (FIG. 1D, FIG. 1E) and VEGF-C156S (FIG. 1F, FIG. 1G) with VEGFR-3 (FIG. 1D, FIG. 1F) and VEGFR-2 (FIG. 1E, FIG. 1G). Chimeric receptor proteins were immobilized onto a carboxymethylated dextran surface. Growth factors were injected over the surface at a flow rate of 20 μl/min at the indicated concentrations. The sensorgrams shown have been subtracted with the corresponding signal obtained when the same sample was passed over a blank control channel.
Bioassay for VEGFR stimulation. […]
VEGF is an endothelial cell mitogen which has been also shown to protect endothelial cells from starvation and TNF-a induced apoptosis via activation of VEGFR-2 (Gerber et al, J. Biol. Chem., 273:30336-30343, 1998; Spyridopoulos et al., J. Mol. Cell. Cardiol., 29:1321-1330, 1997). […] The specificities of the growth factors used were determined using a cell survival bioassay. […]

HMVE cells [2] = test: Serum starvation-induced apoptosis, cytoplasmic histone-associated DNA fragments (ELISA), non-sorted HMVE cells; conditions: non-sorted microvascular endothelial cells, serum-free 24 h, FIG. 2A
From the text: FIG. 2A-FIG. 2B. VEGFR-2 and VEGFR-3, but not VEGFR-1 activating ligands inhibit apoptosis of serum-deprived HMVE cells. Measurement of the cytoplasmic histone-associated DNA fragments (mono- and oligonucleosomes) in serum-starved HMVE cells consisting of two cell populations of blood vascular and lymphatic endothelial cells (FIG. 2A) or in the isolated cell populations after magnetic cell sorting using VEGFR-3 antibodies (FIG. 2B). The enrichment factor of cytoplasmic oligonucleosomes in the apoptotic cells grown for 24 h in serum-free medium (BSA) was chosen as 100 (%). Data represent mean values from three independent experiments (mean±s.d.). […] Analysis of endothelial cell apoptosis. For the apoptosis assay, 70,000 cells per well were seeded into 24-well plates. Treatments were done in duplicates and apoptosis was detected by measuring cytoplasmic histone-associated DNA fragments using the death detection ELISA PLUS kit (Roche, Indianapolis, Ind.). […] Annexin-V-FLUOS (Roche, Indianapolis, Ind.) was used to detect phosphatidylserine on the apoptotic cells by fluorescence microscopy according to the instructions of the manufacturer. The simultaneous staining with propidium iodide (1 μg/ml) was used for discriminating possible necrotic cells.

Molecule: VEGF
- stimulation of HMVE cell migration (HMVE cells [1]): ten-fold stimulation of cell migration
- survival of VEGFR-2/EpoR expressing cells (VEGFR-2/EpoR): able to support the survival of the VEGFR-2/EpoR expressing cells
- protection from starvation induced DNA degradation (cytoplasmic histone-associated DNA fragments) (HMVE cells [2]): able to protect microvascular endothelial cells from starvation induced DNA degradation

B1: VEGF-C156S: VEGFR-3 specific mutant form of VEGF-C, cysteine 156 changed into serine; recombinant human (Thr103 to Ile225) (protein, UniProt P49767 103-225, looked up, variant C156S)
chain: TEETIKFAAAHYNTEILKSIDNEWRKTQCMPREVCIDVGKEFGVATNTFFKPPSVSVYRCGGCCNSEGLQCMNTSTSYLSKTLFEITVPLSQGPKPVTISFANHTSCRCMSKLDVYRQVHSII
- stimulation of HMVE cell migration (HMVE cells [1]): induced the migration of HMVE cells
- survival of VEGFR-2/EpoR expressing cells (VEGFR-2/EpoR): did not affect the survival of these cells
- protection from starvation induced DNA degradation (cytoplasmic histone-associated DNA fragments) (HMVE cells [2]): able to protect microvascular endothelial cells from starvation induced DNA degradation
